# Assay results published in patent US4560748A, “Streptothricin-group compounds” (Ajinomoto Company Incorporated, priority 1982, dated 1985).
# How the values were obtained:
# [1] = tested on: Sarcina lutia ATCC 93412; test: Antimicrobial activity (MIC), broth culture; assay type: cell-based; settings: for MIC: Sarcina, ATCC93412, 20 h; for Antimicrobial activity: against Sarchina lutea ATCC 9341
# Description: (§1) Two ml portions of M3 -Medium (Bactoantibiotic Medium--Difico, 1.75%, pH 7.2) were placed into test tubes and heated at 120° C. for 10 minutes. Each test strain in Table 1 was inoculated into a batch of culture medium, and the inoculated batches were cultured with shaking at 30° C. for 20 hours to obtain seed culture broths. A 0.05 ml sample of each culture broth was inoculated into 20 ml of M3 -Medium containing […] or (II). The inoculates were cultured at 37° C. for 20 hours with shaking. Thereafter, the optical density of each resultant culture broth at 660 nm was determined, and the minimum inhibition concentration (MIC) of each broth was calculated, and is shown in Table 1.
# [2] = tested on: Pseudomonas aeruginosa ATCC 10145; test: Antimicrobial activity (MIC), broth culture; assay type: cell-based; settings: ATCC10145, 37° C., 20 hours
# Description: as §1
# [3] = tested on: Escherichia coli K-12 ATCC 10798; test: Antimicrobial activity (MIC), broth culture; assay type: cell-based; settings: ATCC10798, 37° C., 20 hours
# Description: as §1
# [4] = tested on: Bacillus subtilis ATCC 6633; test: Antimicrobial activity (MIC), broth culture; assay type: cell-based; settings: for MIC: ATCC6633, Bacillus subtilis ATCC 6633, 37° C., 20 hours; for Antimicrobial activity: against Bacillus subtilis ATCC 6633
# Description: as §1
# [5] = tested on: Staphylococcus aureus FDA 209 P; test: Antimicrobial activity (MIC), broth culture; assay type: cell-based; settings: for MIC: FDA209, Staphylococcus aureus FDA 209 P, 37° C., 20 hours; for Antimicrobial activity: against Streptococcus aureus FDA 209P
# Description: as §1
# [6] = tested on: mouse fibroblast cell 3T3 transformed with Semian virus-40 (SV 3T3); test: Number of injured cells, SV 3T3 (transformed with Semian virus-40); assay type: cell-based; set-up: key: -: none of the cells injured; +: half of the cells injured; ++: about 2/3 of the cells injured; +++: almost all of the cells injured; settings: 3 days
# Description: (§2) MEM Uldecco powder (DAI-NIPPON SEIYAKU) (13.45 g) was dissolved in 1 l of distilled water and 2 ml of 7.5% NaHCO3 solution was added to the solution. Then the solution was filtered through a Millipore filter (pore size: 0.22μ) and supplemented with 100 ml of germ-free blood serum. Into a micro test plate (Falcon), 0.15 ml portions of the culture medium thus prepared were placed. Then a 0.05 ml culture sample of previously cultured mouse fibroblast cell 3T3 or mouse fibroblast cell 3T3 transformed with Semian virus-40 (SV 3T3) was inoculated into each portion of the culture medium. Thereafter, the inoculated media were incubated in a CO2 gas incubator (concentration of CO2 gas: 7.0%) at 37° C. for 24 hours. Into the media AN-201(I) or (II) was added to contain 20 μg/ml, 40 μg/ml, 50 μg/ml or 60 μg/ml, and additional cultivation was carried out for 3 days. Number of injured cell in each medium was counted with an invert microscope using a Thama hematometer.
# [7] = tested on: mouse leukemia L 1210 cells; test: Effect on L 1210 cell (relative multiplication number); assay type: cell-based; settings: L1210, 120 h, 5 days, 0 μg/ml = 100; for activity at 10 µg/mL: 10 μg/ml; for activity at 20 µg/mL: 20 μg/ml; for activity at 40 µg/mL: 40 μg/ml; for activity at 50 µg/mL: 50 μg/ml; for activity at 60 µg/mL: 60 μg/ml
# Description: A 10.28 g sample of RPMI 1640 powder medium (DAI-NIPPON SEIYAKU) was dissolved into 1.0 liter distilled water and 1.0 g NaHCO3 was added to it. Then the solution was filtered through a Millipore filter (pore size: 0.22μ) and supplemented with 100 ml of germ-free blood serum. One ml portions of the culture medium thus prepared were placed into Falcon Multi Well aseptically. Then a 0.05 ml culture sample of mouse leukemia L 1210 cells previously cultured was inoculated into each batch of the culture medium, and a definite amount of purified AN-201(I) or (II) dissolved in the same medium was added simultaneously to the culture medium. Thereafter, the inoculated media were incubated in a CO2 gas incubator (concentration of CO2 gas: 7.0%) at […]. After 5 days incubation, the numbers of multiplied cells were counted under a microscope and the relative multiplication numbers obtained are shown in Table 4.
# [8] = tested on: LEWIS lung carcinoma; test: Effect on LEWIS lung carcinoma in BDF1 mice; assay type: in vivo, mouse; settings: for Reduction of tumor size / I.L.S.: intraperitoneally daily for 1-10 days; for Antitumor activity: against LEWIS lung carcinoma in mouse; for I.L.S.: increase in life span; for Life prolongation effects compared with BLM: mouse suffered from LEWIS lung carcinoma
# Description: LEWIS lung carcinoma (1 mm^3) was transplanted subcutaneously into BDF1 mice. After 24 hours of the transplantation, AN-201(I), (II) and BLM were intraperitoneally injected daily for 1-10 days. Antitumor activity was indicated with a reduction in tumor size or with a increase in life span.
# [9] = ED50 on normal cells 3T3; assay type: cell-based; settings: mouse; normal 3T3 cells; 2 days; read-out: ED50 33T3(N)
# Description: (§3) Normal cells, 3T3 and SV-40-transformed 3T3 cells, (SV3T3) were cultured in Eagle's minimal essential medium supplemented with 10% calf serum, 5 μg/ml of cefazoline and 100 μg/ml of streptomycin at the initial cell concentration of 4×10^4 cells/2 cm^2 for 3T3 and 2×10^4 cells/2 cm^2 for SV3T3 at 37° C. in 7% CO2 incubator. After one day of cultivation old medium was removed from tissue culture plate and various concentrations of drug diluted with new medium were added to the Falcon tissue culture plate. After 2 days of cultivation, the cell density was measured and the value of ED50 was determined. N/T ratio was calculated from ED50 value of normal cell, 3T3, to transformed cell, SV3T3.
# [10] = tested on: mouse fibroblast cell 3T3; test: Number of injured cells, mouse fibroblast 3T3; assay type: cell-based; set-up: key: -: none of the cells injured; +: half of the cells injured; ++: about 2/3 of the cells injured; +++: almost all of the cells injured; settings: 3 days
# Description: as §2
# [11] = tested on: Escherichia coli MP-2; test: Antimicrobial activity (MIC), broth culture; assay type: cell-based; settings: MP2, 37° C., 20 hours
# Description: AN-201(I) and (II) can be assayed by determining anti-microbial activity to E. coli MP-2 (FERM-P 5432) (Agric. Biol. Chem., 43, 371, (1979)), which has permeability for high molecular compounds.
# as §1
# [12] = tested on: SV3T3; test: ED50 on SV-40-transformed 3T3 cells and selective cytotoxic effect; assay type: cell-based, mouse; settings: for Cytotoxicity compared with BLM: 3T3 cell transformed with SV-40; for Selective cytotoxic effect (N/T ratio): ED50 of normal cell 3T3 to transformed cell SV3T3, 2880 min; for IC50: Mus musculus, SV3T3, 48 h, SV-40-transformed 3T3 cells, 2 days, read-out: ED50 SV3T3(T); for Antitumor activity (selective cytotoxicity): against 3T3 cell transformed with SV-40
# Description: as §3
# [13] = tested on: LEWIS lung carcinoma; settings: reported for the known agent, cited from earlier work
Compound,MIC [1],Antimicrobial activity [1],MIC [2],MIC [3],MIC [4],Antimicrobial activity [4],MIC [5],Antimicrobial activity [5],Number of Injured Cell ([6]; 20 μg/ml),Number of Injured Cell ([6]; 40 μg/ml),Number of Injured Cell ([6]; 50 μg/ml),Number of Injured Cell ([6]; 60 μg/ml),activity at 10 µg/mL [7],activity at 20 µg/mL [7],activity at 40 µg/mL [7],activity at 50 µg/mL [7],activity at 60 µg/mL [7],Reduction of tumor size ([8]; 9 mg/kg),Antitumor activity [8],I.L.S. ([8]; 9 mg/kg),other results
CC(=O)NC(CCCNC(=O)CC(N)CCCN)CC(=O)NC1C(N=C2NC3C(=O)NCC(O)C3N2)OC(CO)C(OC(N)=O)C1O (centres unmarked) [AN-201(I)],5 µg/mL,positive,> 50 µg/mL,> 50 µg/mL,2.7 µg/mL,positive,2 µg/mL,positive,-,+,+++,+++,100%,80%,30%,0%,0%,45-50%,positive,114-120%,Reduction of tumor size ([8]; 18 mg/kg): 50-65%; I.L.S. ([8]; 18 mg/kg): 120-125%; Life prolongation effects compared with BLM [8]: greater life prolongation effects; CC50 at 48 h [9]: 55 µg/mL; Number of Injured Cell ([10]; 20 μg/ml): -; Number of Injured Cell ([10]; 40 μg/ml): -; Number of Injured Cell ([10]; 50 μg/ml): +; Number of Injured Cell ([10]; 60 μg/ml): ++; MIC [11]: 20 µg/mL; Cytotoxicity compared with BLM [12]: more strongly and selectively cytotoxic; Selective cytotoxic effect (N/T ratio) [12]: 2.2; IC50 [12]: 25 µg/mL; Antitumor activity (selective cytotoxicity) [12]: cytotoxic selectively
CC(=O)NC(CCCNC(=O)CC(N)CCCNC(=O)CC(N)CCCN)CC(=O)NC1C(N=C2NC3C(=O)NCC(O)C3N2)OC(CO)C(OC(N)=O)C1O (centres unmarked) [AN-201(II)],5 µg/mL,positive,> 50 µg/mL,> 50 µg/mL,1.5 µg/mL,positive,2 µg/mL,positive,-,+,+++,+++,100%,80%,25%,0%,0%,74-85%,positive,124-135%,Reduction of tumor size ([8]; 1 mg/kg): 50-57%; Reduction of tumor size ([8]; 3 mg/kg): 54-60%; I.L.S. ([8]; 1 mg/kg): 101-110%; I.L.S. ([8]; 3 mg/kg): 121-130%; Life prolongation effects compared with BLM [8]: greater life prolongation effects; CC50 at 48 h [9]: 50 µg/mL; Number of Injured Cell ([10]; 20 μg/ml): -; Number of Injured Cell ([10]; 40 μg/ml): -; Number of Injured Cell ([10]; 50 μg/ml): +; Number of Injured Cell ([10]; 60 μg/ml): ++; MIC [11]: 4 µg/mL; Cytotoxicity compared with BLM [12]: more strongly and selectively cytotoxic; Selective cytotoxic effect (N/T ratio) [12]: 3.3; IC50 [12]: 15 µg/mL; Antitumor activity (selective cytotoxicity) [12]: cytotoxic selectively
"bleomycin [BLM, reference compound]",,,,,,,,,,,,,,,,,,,,,Antitumor activity (reported) ([13]; LEWIS lung carcinoma in mouse): notable antitumor activity; Chemotherapeutic coefficient (reported) [13]: very high; Reduction of tumor size ([8]; 5 mg/kg): 52-60%; Reduction of tumor size ([8]; 10 mg/kg): 65-80%; I.L.S. ([8]; 5 mg/kg): 100-110%; I.L.S. ([8]; 10 mg/kg): 119-124%
